This note sets out measurements from ChEMBL document CHEMBL3580640, “Design, Synthesis, and Structure-Activity Relationships of Pyridine-Based Rho Kinase (ROCK) Inhibitors” (J Med Chem, 2015).

As a reminder, the Cmax is the highest concentration seen after dosing. By AUC is commonly meant concentration integrated over time. A low value points to low exposure. In general, clearance refers to a measure of how efficiently the substance is removed, as volume per time. A lower clearance goes with a low capacity for elimination. One may read the Tmax as the time at which the peak concentration occurs. The bioavailability is the share of a dose that reaches the circulation, judged against a reference dose that is usually intravenous. A high value points to good availability. What is called Vdss is the apparent volume that relates the amount in the body to the concentration in plasma or blood. Low values mean little distribution into tissue, high ones wide distribution into tissue. One may read the half-life as the time in which the quantity being followed falls by half. Low readings indicate rapid decline, high ones slow decline.

What all share (type): ADME, organism-based
Holding throughout (details): in vivo

Series [1] deals with Rattus norvegicus. As to the kind of experiment: Half life in iv dosed rat.
Series [2] can be described thus: Cmax in iv dosed rat. Also noted: route intravenous.
A short description of series [3]: AUC in po dosed rat.
The nature of series [4]: Cmax in po dosed rat. Also noted: route oral.
Series [5] concerns Rattus norvegicus. As to the kind of experiment: Clearance in iv dosed rat.
The nature of series [6]: Tmax in po dosed rat.
Series [7] in a line: AUC in iv dosed rat.
A short description of series [8]: Oral bioavailability in rat.
In series [9] the test system is Rattus norvegicus. As to the kind of experiment: Volume of distribution at steady state in iv dosed rat.
Series [10] can be described thus: Half life in po dosed rat.

The structures appear in SMILES notation.

On to `CS(=O)(=O)Nc1cccc(CC(=O)Nc2cc(-c3ccnc(F)c3)cs2)c1`, for which the t1/2 in series [1] came out at 2.6 h. The values for the maximum concentration (Cmax) in series [2] and in series [4] were 2920 ng/mL and 3200 ng/mL, respectively. Also, the AUC is 32600 ng·h/mL in [3] and 4310 ng·h/mL in series [7]. This compound returned a clearance in series [5] of 3.45 mL/min/kg. Besides, the time of peak concentration (Tmax) in [6] was 3 h. Further, the bioavailability in series [8] came to 69%. Besides, the volume of distribution (Vdss) in [9] came out at 0.675 L/kg. In [10], this compound showed a half-life of 3.4 h.
